Assay results: patent US20060167269A1, “Compounds and methods for the inhibition of compounds cruzi” (priority 2001, published 2006)
Where “and” joins values, the source holds several entries; their conditions need not be identical. Identical values can stand only once. Like-named read-outs stand apart in the source and are kept apart here.

Columns and labels:
C. albicans = test: Candida broth dilution assay, C. albicans; assay type: cell-based; conditions: 80% growth inhibition, 24 h
Procedure: (§1) The compound JJ119 was tested for anti-Candida activity in a standard assay, as described below, against a number of strains of fungus. The assay compared inhibition (the effective dose causing 80% growth inhibition of the fungus) of several strains of Candida spp. using Fluconazole and compound JJ 119 (R^3 is CH3, all other variable substituents are H) of the present invention (see Table I, above).
(§2) The Candida assay followed the “Reference method for broth dilution antifungal susceptibility testing of yeasts; approved standard”, NCCLS, June, 1997. The procedure was modified to a 96 well format (as described in Modifications section 3.8). The methodology employed deviated from the approved method by reading results at 24 h rather than 48 h (since cultures of the ATCC strains were generally dense by 24 h).
(§3) In general, Candida were inoculated at a density of 2×10^3/ml in RPMI based medium in the presence of drugs at the following concentrations: 50 uM, 10 uM, 2 uM, 0.4 uM, and 0 uM. Cells were incubated at 34° C. for 24 hr and growth inhibition was scored visually for turbidity. All drugs were diluted in DMSO (except fluconazole which was diluted in water). Top concentration of DMSO in the cultures was 0.25%; DMSO alone at 0.5% was not inhibitory to C. albicans.

C. glabrata = test: Candida broth dilution assay, C. glabrata; assay type: cell-based; conditions: 80% growth inhibition, 24 h
Procedure: as §1, §2, §3

[1] = system: T. cruzi (Tulahuen strain); test: T. cruzi growth on monolayers of mouse 3T3 fibroblasts; assay type: cell-based, Trypanosoma cruzi
Procedure: (§4) Compounds which appear in Table 1, below were tested […] using the Tulahuen strain of T. cruzi. See Buckner, et al., Antimicrobial Agents and Chemotherapy, 40, 2592-2597 (1996). In this assay, trypomastigotes were grown on monolayers of mouse 3T3 fibroblasts as previously described by Van Voorhis, et al., J. Exp. Med. 169: 641-652 (1989). […] The assay also tested for inhibition of fibroblast growth (an indication of potential toxicity). In virtually all instances, the compounds were non-toxic in the assay. In Table 1, if a substituent is left blank, such a substituent is defined as a hydrogen. [drawing 5]

mouse 3T3 fibroblasts = test: inhibition of fibroblast growth (indication of potential toxicity); assay type: cell-based; conditions: inhibition of 3T3 fibroblast growth
Procedure: as §4

[2] = incubation in murine serum (ester hydrolysis); assay type: in vitro ADME, mouse; conditions: 30 minutes of incubation
Excerpt: The blood serum esterase levels of mice is very high, and it was thought that eliminating the ester group would increase the bioavailability of the aminobiphenyl over the ester.

[3] = system: T. cruzi trypomastigotes (Tulahuen); test: anti-T. cruzi activity in infected mice; assay type: in vivo, mouse
Procedure: FIGS. 3A and B represent mouse data for compound JJ121. FIG. 3A represents Parasite levels and FIG. 3B represents Survival for treated and control mice. Mice were dosed orally at 50 mg/kg twice daily on days 1-10. They were infected with T. cruzi trypomastigotes (Tulahuen) 2×10^3 SQ at day 0. Parasitemia was quantified microscopically on a small drop of tail blood at 400×.
Despite this apparent stability, however, the results for anti-T. cruzi activity in infected mice is much better for JJ121 than for JJ37. […] All mice receiving JJ121 survive past 100 days, whereas the vehicle mice all die by day 20.

C. krusei = test: Candida broth dilution assay, C. krusei; assay type: cell-based; conditions: 80% growth inhibition, 24 h
Procedure: as §1, §2, §3

C. tropicalis = test: Candida broth dilution assay, C. tropicalis; assay type: cell-based; conditions: 80% growth inhibition, 24 h
Procedure: as §1, §2, §3

C. parapsilosis = test: Candida broth dilution assay, C. parapsilosis; assay type: cell-based; conditions: 80% growth inhibition, 24 h
Procedure: as §1, §2, §3

Candida spp. = test: Candida broth dilution assay; assay type: cell-based
Procedure: as §1, §2, §3

[4] = read-out: activity against T. cruzi
[5] = drug concentration giving 50% inhibition of T. cruzi growth on 3T3 fibroblasts, read-out: EC50 T. cruzi

Row | Structure (SMILES) | EC50 (mouse 3T3 fibroblasts) | EC50 [1, 5] | further results
1 | OC(Cn1cncn1)(Cn1cncn1)c1ccc(F)cc1F [Fluconazole] |  |  | ED80 (C. albicans; C. albicans strain 1): 6530 nM; ED80 (C. glabrata; C. glabrata strain 1): 104.5 μM and (32) μg/ml; ED80 (C. glabrata; C. glabrata strain 2): 6.528 μM and (2) μg/ml; ED80 (C. glabrata; C. glabrata strain 3): 208.9 μM and (64) μg/ml
2 | COC(=O)c1ccc(NCc2cncn2Cc2ccc(C#N)cc2)cc1-c1ccccc1 [JJ20] | > 10000 nM |  | EC50 [1, 4]: 40 nM
3 | COC(=O)c1ccc(NCc2cncn2Cc2ccccc2)cc1-c1ccccc1 [JJ21] | > 10000 nM | 80 nM | 
4 | N#Cc1ccc(Cn2cncc2CNc2ccc(C(=O)O)c(-c3ccccc3)c2)cc1 [JJ28] | > 10000 nM |  | EC50 [1, 4]: 1000 nM
5 | COC(=O)c1ccc(NCc2cncn2Cc2ccc(-c3ccccc3)cc2)cc1-c1ccccc1 [JJ37] | > 10000 nM |  | EC50 ([1]; read-out: activity against T. cruzi amastigotes): 0.5 nM; species found after incubation in murine serum [2]: the ester is the only species; activity in mouse models ([3]; infected mice): shows activity in mouse models, but much less than that of JJ121
6 | COC(=O)c1ccc(NCc2cncn2Cc2ccc([N+](=O)[O-])cc2)cc1-c1ccccc1 [JJ51, p-NO2-imid-BP-COOMe] | > 10000 nM | 100 nM | 
7 | COC(=O)c1ccc(NCc2cncn2Cc2ccc(C)cc2)cc1-c1ccccc1 [JJ52, p-CH3-imid-BP-COOMe] | > 10000 nM | 5 nM | 
8 | COC(=O)c1ccc(NCc2cncn2Cc2ccc(Cl)cc2)cc1-c1ccccc1 [JJ53, p-Cl-imid-BP-COOMe] | > 10000 nM | 5 nM | 
9 | COC(=O)c1ccc(NCc2cncn2Cc2ccc(Br)cc2)cc1-c1ccccc1 [JJ57, p-Br-imid-BP-COOMe] | > 10000 nM | 20 nM | 
10 | COC(=O)c1ccc(NCc2cncn2Cc2ccc(N)cc2)cc1-c1ccccc1 [JJ58, p-NH2-imid-BP-COOMe] | > 10000 nM | 250 nM | 
11 | N#Cc1ccc(Cn2cncc2CNc2cccc(-c3ccccc3)c2)cc1 [JJ73] |  | 50 nM | 
12 | COC(=O)c1ccc(NCc2cncn2Cc2cccc([N+](=O)[O-])c2)cc1-c1ccccc1 [JJ81, m-NO2-imid-BP-COOMe] | > 10000 nM | 30 nM | 
13 | COC(=O)c1ccc(NCc2cncn2Cc2cccc(C)c2)cc1-c1ccccc1 [JJ82, m-CH3-imid-BP-COOMe] | > 10000 nM | 20 nM | 
14 | COC(=O)c1ccc(NCc2cncn2Cc2cccc(N)c2)cc1-c1ccccc1 [JJ83, m-NH2-imid-BP-COOMe] | > 10000 nM | 130 nM | 
15 | COC(=O)c1ccc(NCc2cncn2Cc2cccc(Cl)c2)cc1-c1ccccc1 [JJ84, m-Cl-imid-BP-COOMe] | > 10000 nM | 20 nM | 
16 | COC(=O)c1ccc(NCc2cncn2Cc2cccc(Br)c2)cc1-c1ccccc1 [JJ85, m-Br-imid-BP-COOMe] | > 10000 nM | 20 nM | 

Row | Structure (SMILES) | EC50 (mouse 3T3 fibroblasts) | EC50 [1, 5] | further results
17 | COC(=O)c1ccc(NCc2cncn2Cc2cccc(C#N)c2)cc1-c1ccccc1 [JJ97, m-CN-imid-BP-COOMe] | > 10000 nM | 100 nM | 
18 | COC(=O)c1ccc(NCc2cncn2Cc2ccccc2C)cc1-c1ccccc1 [JJ101, o-CH3-imid-BP-COOMe] |  | 1000 nM | 
19 | COC(=O)c1ccc(NCc2cncn2Cc2ccccc2Br)cc1-c1ccccc1 [JJ102, o-Br-imid-BP-COOMe] |  | 100 nM | 
20 | COC(=O)c1ccc(NCc2cncn2Cc2ccccc2C#N)cc1-c1ccccc1 [JJ103, o-CN-imid-BP-COOMe] | > 10000 nM | 200 nM | 
21 | COC(=O)c1ccc(NCc2cncn2Cc2cccc(C(F)(F)F)c2)cc1-c1ccccc1 [JJ104] | > 10000 nM | 40 nM | 
22 | COC(=O)c1ccc(NCc2cncn2Cc2ccccc2N)cc1-c1ccccc1 [JJ105, o-NH2-imid-BP-COOMe] | > 10000 nM | 5 nM | 
23 | COC(=O)c1ccc(NCc2cncn2Cc2ccccc2Cl)cc1-c1ccccc1 [JJ117] | > 10000 nM |  | 
24 | O=[N+]([O-])c1ccc(Cn2cncc2CNc2cccc(-c3ccccc3)c2)cc1 [JJ118, p-NO2-imid-BP] |  | 100 nM | 
25 | Cc1ccc(Cn2cncc2CNc2cccc(-c3ccccc3)c2)cc1 [JJ119, p-CH3-imid-BP] |  | 100 nM | ED80 (C. albicans; C. albicans strain 1): 12500 nM; ED80 (C. albicans; C. albicans strain 2): 12500 nM; ED80 (C. albicans; C. albicans strain 3): 6250 nM; ED80 (C. krusei; C. krusei strain 1): 25000 nM; ED80 (C. krusei; C. krusei strain 2): 50000 nM; ED80 (C. krusei; C. krusei strain 3): 25000 nM; ED80 (C. glabrata; C. glabrata strain 1): 12.5 µM; ED80 (C. glabrata; C. glabrata strain 2): 6.25 µM; ED80 (C. glabrata; C. glabrata strain 3): 25 µM; ED80 (C. tropicalis; C. tropicalis strain 1): >100000 nM; ED80 (C. tropicalis; C. tropicalis strain 2 (first line so named, r25)): >100000 nM; ED80 (C. tropicalis; C. tropicalis strain 2 (second line so named, r27)): >100000 nM; ED80 (C. parapsilosis; C. parapsilosis strain 1): 100000 nM and 50000 nM; ED80 (C. parapsilosis; C. parapsilosis strain 2): 25000 nM and 12500 nM; anti-Candida activity (Candida spp.): favorable anti-Candida activity
26 | Clc1ccc(Cn2cncc2CNc2cccc(-c3ccccc3)c2)cc1 [JJ120, p-Cl-imid-BP] |  | 80 nM | anti-Candida activity (Candida spp.): exhibited activity
27 | c1ccc(-c2ccc(Cn3cncc3CNc3cccc(-c4ccccc4)c3)cc2)cc1 [JJ121, p-Ph-imid-BP] |  | 10 nM | reduced activity compared with JJ37 [1]: 20 fold; IC50 ([1]; T. cruzi): 10 nM; survival ([3]; mice, oral 50 mg/kg twice daily on days 1-10, vehicle mice all die by day 20): > 100 days; parasite level in mouse blood ([3]; mice, oral 50 mg/kg twice daily, within 45 days): dramatic suppression of parasite from mouse blood
28 | CCOC(=O)c1ccc(NCc2cncn2Cc2ccc(-c3ccccc3)cc2)cc1-c1ccccc1 [JJ128] | > 10000 nM | 10 nM | 
29 | CC(C)OC(=O)c1ccc(NCc2cncn2Cc2ccc(-c3ccccc3)cc2)cc1-c1ccccc1 [JJ129] | > 10000 nM | 50 nM | 
30 | O=C(OC1CCCCC1)c1ccc(NCc2cncn2Cc2ccc(-c3ccccc3)cc2)cc1-c1ccccc1 [JJ130] | > 10000 nM | 10 nM | 
31 | c1ccc(-c2ccc(Cn3cncc3CNc3ccc(-c4cc5ccccc5o4)c(-c4ccccc4)c3)cc2)cc1 [JJ138] | > 10000 nM | 100 nM | 
32 | c1ccc(-c2ccc(Cn3cncc3CNc3ccc(-c4noc5ccccc45)c(-c4ccccc4)c3)cc2)cc1 [JJ141] | > 10000 nM | 10 nM | 
